Like-named read-outs stand apart in the source and are kept apart here.
Key:
[1] = Parallel artificial membrane permeability assay (PAMPA); conditions: for Conc. acceptor well / Conc. donor well: PAMPA after incubation
Method: The plates were stored at – 20 °C until ready for use. Prior to use, the plate was prewarmed at room temperature for 30 min. Donor- and acceptor solutions were prepared as 12 mM phosphate buffered saline with a pH of 6.5 (donor) respectively 7.4 (acceptor). […] Then, 300 μL of each donor solution were filled into the donor (bottom) wells of the PAMPA plate. 200 μL of the acceptor medium were loaded into each well of the pre-coated receiver plate (top). […] The compound concentrations in the donor- and acceptor wells were then determined using a Jasco 2 HPLC system equipped with a ReproSil-Pur 120 ODS-3 column (5 μm, 50 × 2 mm) and UV detection. […] The injection volume was 40 μL and the flow rate 1 mL/min. […] For X15695, two calibration curves were prepared in the presence (donor well) and absence (acceptor well) of 10% ethanol. (Figure S6). The experiments were performed in triplicates.
Where cA(t) is the compound concentration in the acceptor well in μmol⋅l^−1, cD(t) is the compound concentration in the donor well in […], VA and VD is the volume of the acceptor respectively donor solution per well in mL, A is the membrane area in cm^2 and t the incubation time in seconds (Table S3).

[2] = test system: AHR target genes CYP1A1, CYP1B1, ALDH3A1; conditions: human, 16 h, 1 µM
MCF-7 luc Y537S = experiment: Clonogenic assay (clonal expansion), MCF-7 cells with Y537S ER mutation; type: cell-based; conditions: Homo sapiens, MCF7, 336 h
Method: Cells were seeded at a density of 1–2×10^3 cells/well in a 6-well plate and treated with increasing concentrations of the X compounds for 14–21 days. Medium and compounds were renewed every 7 days. The experiments were terminated by fixing the cells with methanol and the colonies formed were visualized after staining with 0.5% crystal violet (w/v) in 20% methanol (v/v). Plates were photographed and the area covered by the colonies was calculated using the ColonyArea Plugin for Fiji (RRID:SCR_003070).[20]

Fc1ccc(-c2cn3cc(C(F)(F)F)cc(Cl)c3n2)cc1 [X15695]
Papp at 5 h, 200 µM ([1]; PAMPA): 8.68 ×10⁻⁶ cm/s
Conc. acceptor well ([1]; replica 1): 55.19 µM
Conc. donor well ([1]; replica 1): 214.69 µM
Conc. acceptor well ([1]; replica 2): 55.84 µM
Conc. donor well ([1]; replica 2): 190.41 µM
Conc. acceptor well ([1]; replica 3): 25.23 µM
Conc. donor well ([1]; replica 3): 225.99 µM
expression of AHR target genes (RT-PCR) [2]: enhanced the transcriptional activity of the AHR target genes in both MCF-7 and T47D cells
IC50 (MCF-7 luc Y537S; read-out: IC50 clonal expansion, Figure 1B, MCF-7 luc Y537S, absence of E2, 14 days): 7.82 nM
IC50 (MCF-7 luc Y537S; read-out: IC50 clonal expansion, Figure 1C, MCF-7 luc Y537S + 10 nM E2, 14 days): 6.41 nM
IC50 (MCF-7 luc Y537S; read-out: IC50 clonal expansion, Figure 1D, MCF-7 luc Y537S, absence of E2, 14 days): 7.82 nM
IC50 (MCF-7 luc Y537S; read-out: IC50 clonal expansion, Figure 1E, MCF-7 luc Y537S + 10 nM E2, 14 days): 6.41 nM

— article PMC13197777, “Distinct 2-phenylimidazo[1,2-a]pyridine derivatives that inhibit breast cancer cell proliferation identified as AHR ligands” (iScience, 2026)
